Test results taken from patent US20100130945A1, “TREATMENT OF TISSUE VIA APPLICATION OF MAGNETIC FIELD” (priority 2006, published 2010).

Test system: isolated cardiac myocytes
Experiment: Ca2+ transients (indo-1 fluorescence ratio) in isolated cardiac myocytes in culture, with drug and 16 Hz alternating magnetic field
Assay type: cell-based, rat
Experimental: Cardiac myocytes were extracted in order to study intracellular free calcium ([Ca^2+]i) shifts as a result of exposure to alternating magnetic field. This was estimated from indo-1 fluorescence using the ratio method. […] The hearts were minced and then gently agitated in a solution of proteolytic enzymes, RDB. The RDB was diluted 1:100 in Ca^2+ and Mg^2+ free PBS at 25° C. for a few cycles of 10 minutes each, Dulbecco's modified Eagle's medium (DMEM) supplemented with inactivated 10% horse serum (Biological Industries, Kibbutz Beit Haemek, Israel), and 0.5% chick embryo extract was added to the supernatant suspensions containing dissociated cells. The mixture was centrifuged at 300 g for 5 minutes. The supernatant phase was discarded and the cells were resuspended in the same medium. The suspensions of the cells were diluted to 1.0×10^6 cells/ml and were placed in 35-mm plastic culture dishes on collagen/gelatin coated cover glasses. The culture was incubated in a humidified atmosphere of 5% CO2, 95% air at 37° C. All experiments were performed at day 4 in culture. In a second set of experiments the specificity of the myocyte ion channels (KATP) was tested by inducing exposure alternating magnetic field of 16 Hz, that were delivered for 10 minutes of base line (n=10). Following baseline recording, the channels were blocked by the addition to the dish 5 μM of Glibenclamide and alternating magnetic field was delivered for an additional 20 minutes. In the third setup of the experiment the amount of 5 μM of Glibenclamide was primarily added (n=10), to be followed by exposure to alternating magnetic field of 20 min. In the fourth phase of the experimental setup 3 μM of Nicorandil, a potassium channel opener (KCO) were added (n=10), following 10 minutes, alternating magnetic field was exposure was introduced for 20 minutes. In the fifth phase of the experiment alternating magnetic field was applied for 20 minutes followed by introduction of 3 μM of Nicorandil (n=5). Intracellular free calcium concentration [Ca^2+], was estimated from indo-1 fluorescence using the ratio method previously described before by Grynkiewicz et al (1985). Following incubation, the cells were rinsed twice with glucose enriched PBS and transferred to a chamber on the stage of a Zeiss inverted epifluorescent microscope. Indo-1-AM was excited at 355 nm and the emitted light was then split by a dichroic mirror to two photomultipliers, with input filters at 405 and 495 nm. The fluorescence ratio of 405/495 nm, which is proportional to [Ca2+] was fed into a computer program. The time integral of Ca^2+ Influx was determined as area under the curve via a program, which gives the integral during any specified time window. From this value the baseline offset, measured at the systolic and diastolic phase, were subtracted. Baseline data from calcium transients were normalized to 100 percent and all values were presented as percent change from baseline. Mean and SD were calculated. A P≦0.05 was considered statistically significant.

SMILES	change of amplitude of Ca2+ transients (narrowing) with nicorandil (3 μM Nicorandil added, before magnetic field, percent change from baseline, FIG. 9B)	change of amplitude of Ca2+ transients (narrowing) with nicorandil following 20 minutes of alternating magnetic field (3 μM Nicorandil then 20 min field of 16 Hz, 80 nT, n=4, FIG. 9C)	combination of magnetic field exposure and KCO administration (nicorandil plus alternating magnetic field, 15.95 Hz, FIGS. 9A-C)	change of amplitude of Ca2+ transients (widening) with glibenclamide (5 μM Glibenclamide added, before magnetic field, percent change from baseline, n=10, FIG. 8B)	change of amplitude of Ca2+ transients (narrowing) with glibenclamide following 20 minutes of alternating magnetic field (5 μM Glibenclamide then 20 min field of 16 Hz, 80 nT, n=10, FIG. 8C)	effect on calcium ions efflux from myocytes in cultures following exposure to 16 Hz magnetic field (low intensities of 16 Hz magnetic field, KATP channel blocker)
O=C(NCCO[N+](=O)[O-])c1cccnc1 [nicorandil]	−58%±7%	−63%±3%	synergistic effect			
COc1ccc(Cl)cc1C(=O)NCCc1ccc(S(=O)(=O)NC(=O)NC2CCCCC2)cc1 [glibenclamide]				+30%±9%	−24%±6%	counteracting effect
